*1 amine or outer side, *2 acyl side, *3 side chain or, on linkers, in order; H or OH if unused. Where a SMILES comes first, the peptide text is derived from it. Bridges are numbered along the chain shown (N, C = ends). [ ]: non-standard residue; d: D form. The star is where a group is joined. hPhe(3-Cl-4-CF3) = N[C@@H](CCc1ccc(C(F)(F)F)c(Cl)c1)C(=O)O; NPrPhe(4-CF3) = CCCN[C@@H](Cc1ccc(C(F)(F)F)cc1)C(=O)O; NEtPhe(4-CF3) = CCN[C@@H](Cc1ccc(C(F)(F)F)cc1)C(=O)O; X4 = CCCN([C@@H](COCCC(C)C)C(=O)[*:2])[*:1]; NMeGly(cPent) = CN[C@H](C(=O)O)C1CCCC1; Pro(4,4-F2) = O=C(O)[C@@H]1CC(F)(F)CN1; Aze(3S-Me) = C[C@H]1CN[C@@H]1C(=O)O; NMeD = CN[C@@H](CC(=O)O)C(=O)O; NMeL = CN[C@@H](CC(C)C)C(=O)O; NMeAbu = CC[C@H](NC)C(=O)O; Morpholide = C1CN(*)CCO1; NMeA = CN[C@@H](C)C(=O)O; Ac5c = NC1(C(=O)O)CCCC1; Aze = O=C(O)[C@@H]1CCN1; Ac4c = NC1(C(=O)O)CCC1; Ac3c = NC1(C(=O)O)CC1; Sar = CNCC(=O)O
How the values were obtained:
[1] = target: GDP-bound HRAS wild-type protein (Homo sapiens, UniProt P01112); test: Binding to HRAS by surface plasmon resonance (SPR), Single Cycle Kinetics
[2] = target: GDP-bound NRAS wild-type protein (Homo sapiens, UniProt P01111); test: Binding to NRAS by surface plasmon resonance (SPR), Single Cycle Kinetics
[3] = KD ratio, GDP-bound HRAS wild-type vs GDP-bound KRAS wild-type, SPR
[4] = KD ratio, GDP-bound NRAS wild-type vs GDP-bound KRAS wild-type, SPR

Chain of GDP-bound HRAS wild-type protein (P01112 whole entry): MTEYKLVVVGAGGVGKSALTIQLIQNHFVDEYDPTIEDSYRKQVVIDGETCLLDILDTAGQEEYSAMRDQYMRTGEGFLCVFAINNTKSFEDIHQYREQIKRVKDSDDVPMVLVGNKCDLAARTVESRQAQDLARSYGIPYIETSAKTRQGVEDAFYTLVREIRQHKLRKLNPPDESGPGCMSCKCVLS
Chain of GDP-bound NRAS wild-type protein (P01111 whole entry): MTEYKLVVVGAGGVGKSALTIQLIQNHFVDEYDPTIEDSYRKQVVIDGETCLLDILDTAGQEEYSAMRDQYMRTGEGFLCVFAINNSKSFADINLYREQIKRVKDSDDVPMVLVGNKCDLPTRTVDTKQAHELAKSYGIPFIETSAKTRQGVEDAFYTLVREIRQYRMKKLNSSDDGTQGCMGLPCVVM

SMILES: CCCN1C(=O)[C@@H]2[C@@H](C)CN2C(=O)[C@H](C)N(C)C(=O)[C@H]([C@@H](C)CC)NC(=O)[C@H](CC(C)C)N(C)C(=O)C[C@@H](C(=O)N2CCOCC2)N(C)C(=O)[C@H](C2CCCC2)N(C)C(=O)C2(CCCC2)NC(=O)[C@@H]2CCCN2C(=O)[C@H](CCc2ccc(C(F)(F)F)c(Cl)c2)NC(=O)CN(C)C(=O)[C@@H]1Cc1ccc(C(F)(F)F)cc1 [PP0141] ([NMeL]I[NMeA][Aze(3S-Me)][NPrPhe(4-CF3)][Sar][hPhe(3-Cl-4-CF3)]P[Ac5c][NMeGly(cPent)][NMeD]-Morpholide; lactam N-11)
- HRAS/KRAS (ratio of KD for GDP-bound HRAS wild-type to KD for KRAS) ([1]; SPR): B (a compound having 3 or more and less than 10 is denoted as B)
- NRAS/KRAS (ratio of KD for GDP-bound NRAS wild-type to KD for KRAS) ([2]; SPR): C (A compound having a KD ratio of 0.1 or more and less than 3 is denoted as C)

SMILES: CC[C@H](C)[C@@H]1NC(=O)[C@H](CC(C)C)N(C)C(=O)C[C@@H](C(=O)N2CCOCC2)N(C)C(=O)[C@H](C2CCCC2)N(C)C(=O)C2(CC2)NC(=O)[C@@H]2CCCN2C(=O)[C@H](CCc2ccc(C(F)(F)F)c(Cl)c2)NC(=O)CN(C)C(=O)[C@H](Cc2ccc(C(F)(F)F)cc2)N(CC)C(=O)[C@@H]2CCN2C(=O)[C@H](C)N(C)C1=O [PP0220] ([NMeL]I[NMeA][Aze][NEtPhe(4-CF3)][Sar][hPhe(3-Cl-4-CF3)]P[Ac3c][NMeGly(cPent)][NMeD]-Morpholide; lactam N-11)
- HRAS/KRAS (ratio of KD for GDP-bound HRAS wild-type to KD for KRAS) ([1]; SPR): C (A compound having a KD ratio of 0.1 or more and less than 3 is denoted as C)
- NRAS/KRAS (ratio of KD for GDP-bound NRAS wild-type to KD for KRAS) ([2]; SPR): C (A compound having a KD ratio of 0.1 or more and less than 3 is denoted as C)

SMILES: CC[C@H](C)[C@@H]1NC(=O)[C@H](CC(C)C)N(C)C(=O)C[C@@H](C(=O)N2CCOCC2)N(C)C(=O)[C@H](C2CCCC2)N(C)C(=O)C2(CCC2)NC(=O)[C@@H]2C[C@@H](OC)CN2C(=O)[C@H](CCc2cc(F)c(C(F)(F)F)c(F)c2)NC(=O)CN(C)C(=O)[C@H](Cc2ccc(C(F)(F)F)cc2)N2CCCC[C@@H](C2=O)N(C)C(=O)CN(C)C1=O [PP1003]
- HRAS/KRAS (ratio of KD value with respect to HRAS to KD value with respect to KRAS) [1, 3]: B (a compound having 3 or more and less than 10 is denoted as B)
- NRAS/KRAS (ratio of KD value with respect to NRAS to KD value with respect to KRAS) [2, 4]: C (A compound having a KD ratio of 0.1 or more and less than 3 is denoted as C)

SMILES: CCCN1C(=O)CN(C)C(=O)CN(C)C(=O)[C@H]([C@@H](C)CC)NC(=O)[C@H](CC)N(C)C(=O)C[C@@H](C(=O)N2CCOCC2)N(C)C(=O)[C@H](C2CCCC2)N(C)C(=O)C2(CCCC2)NC(=O)[C@@H]2CC(F)(F)CN2C(=O)[C@H](CCc2ccc(C(F)(F)F)c(Cl)c2)NC(=O)CN(C)C(=O)[C@@H]1Cc1ccc(C(F)(F)F)cc1 [PP0202] ([NMeAbu]I[Sar][Sar][NPrPhe(4-CF3)][Sar][hPhe(3-Cl-4-CF3)][Pro(4,4-F2)][Ac5c][NMeGly(cPent)][NMeD]-Morpholide; lactam N-11)
- HRAS/KRAS (ratio of KD for GDP-bound HRAS wild-type to KD for KRAS) ([1]; SPR): C (A compound having a KD ratio of 0.1 or more and less than 3 is denoted as C)
- NRAS/KRAS (ratio of KD for GDP-bound NRAS wild-type to KD for KRAS) ([2]; SPR): B (a compound having 3 or more and less than 10 is denoted as B)

SMILES: CC[C@H](C)[C@@H]1NC(=O)[C@H](CC(C)C)N(C)C(=O)C[C@@H](C(=O)N2CCOCC2)N(C)C(=O)[C@H](C2CCCC2)N(C)C(=O)C2(CCCC2)NC(=O)[C@@H]2CCCN2C(=O)[C@H](CCc2cc(F)c(C(F)(F)F)c(F)c2)NC(=O)CN(C)C(=O)[C@H](Cc2ccc(C(F)(F)F)cc2)N2CCCC[C@@H](C2=O)N(C)C(=O)[C@@H]2CCCN2C1=O [PP0547]
- HRAS/KRAS (ratio of KD value with respect to GDP-bound HRAS wild-type protein to KD value with respect to KRAS) ([1]; SPR): B (a compound having 3 or more and less than 10 is denoted as B)
- NRAS/KRAS (ratio of KD value with respect to GDP-bound NRAS wild-type protein to KD value with respect to KRAS) ([2]; SPR): B (a compound having 3 or more and less than 10 is denoted as B)

SMILES: CCCN1C(=O)CN(C)C(=O)CN(C)C(=O)[C@H]([C@@H](C)CC)NC(=O)[C@H](CC(C)C)N(C)C(=O)C[C@@H](C(=O)N2CCOCC2)N(C)C(=O)[C@H](C2CCCC2)N(C)C(=O)C2(CCC2)NC(=O)[C@@H]2CCCN2C(=O)[C@H](CCc2ccc(C(F)(F)F)c(Cl)c2)NC(=O)CN(C)C(=O)[C@@H]1COCCC(C)C [PP1817] ([NMeL]I[Sar][Sar][X4][Sar][hPhe(3-Cl-4-CF3)]P[Ac4c][NMeGly(cPent)][NMeD]-Morpholide; lactam N-11)
- HRAS/KRAS (ratio of KD value for HRAS to KD value for KRAS) [1, 3]: C (A compound having a KD ratio of 0.1 or more and less than 3 is denoted as C)
- NRAS/KRAS (ratio of KD value for NRAS to KD value for KRAS) [2, 4]: C (A compound having a KD ratio of 0.1 or more and less than 3 is denoted as C)

SMILES: CCC[C@H]1C(=O)N[C@@H]([C@@H](C)CC)C(=O)N(C2CC2)CC(=O)N(C)[C@H]2C/C=C\CCN(C2=O)[C@@H](Cc2ccc(C)cc2)C(=O)N(C)CC(=O)N[C@@H](CCc2ccc(Cl)c(Cl)c2)C(=O)N2C[C@H](OCC)C[C@H]2C(=O)NC2(CC(C)(C)C2)C(=O)N(C)[C@@H](CC(C)(C)C)C(=O)N(C)[C@H](C(=O)N(C)C)CC(=O)N1C [PP2726]
- HRAS/KRAS (ratio of KD value with respect to GDP-bound HRAS wild-type protein to KD value with respect to KRAS) ([1]; class symbols): A (a compound having 10 or more and less than 20 is denoted as A)
- NRAS/KRAS (ratio of KD value with respect to GDP-bound NRAS wild-type protein to KD value with respect to KRAS) ([2]; class symbols): AA (a compound having 20 or more is denoted as AA)
